{"source": "patent US20230263757A1", "about": "“DISINFECTING WIPE KIT FOR CENTRAL VENOUS ACCESS DEVICES” (SterileCare Inc., priority 2022, published 2023)", "key": {"[1]": {"test_system": "Candida albicans SK4b", "experiment": "MIC, micro broth dilution", "format": "cell-based", "conditions": "alone", "experimental": "(§1) An assay was made using a minimum inhibitory concentration (MIC) and minimum bactericidal concentration (MBC) and minimum fungicidal concentration (MFC) determination. The MIC was determined by the micro broth dilution method in 96-well plates. Serial two-fold dilutions of tetrasodium EDTA (from 2% to 0.015%), ethanol (from 50% to 0.1%) and chlorhexidine HCl (from 100 μg/mL to 0.025 μg/mL) were prepared in MH broth with a final volume of 90 μL per well. A 10 μL containing 1×10^5 bacterial cells or 2×10^3 fungal cells were added to each well. The inoculated plates were covered with a lid, sealed with Parafilm, and incubated for 24 h at 37° C. with slight rocking on a tilting platform shaker. After incubation, the optical density at 600 nm (OD 600) of the cultures in each well was measured using an xMark™ Microplate Absorbance Spectrophotometer (Bio-Rad). […] MBCs and MFCs were determined by transferring 100 μL from each well with no apparent growth onto appropriate agar plates, followed by incubation for 24 h at 37° C."}, "[2]": {"test_system": "Escherichia coli ON29", "experiment": "MIC, micro broth dilution", "format": "cell-based", "conditions": "alone", "experimental": "as §1"}, "[3]": {"test_system": "Proteus mirabilis ON153", "experiment": "MIC, micro broth dilution", "format": "cell-based", "conditions": "alone", "experimental": "as §1"}, "[4]": {"test_system": "Pseudomonas aeruginosa SK1", "experiment": "MIC, micro broth dilution", "format": "cell-based", "conditions": "alone", "experimental": "as §1"}, "[5]": {"test_system": "Serratia marcescens SK2", "experiment": "MIC, micro broth dilution", "format": "cell-based", "conditions": "alone", "experimental": "as §1"}, "[6]": {"test_system": "Staphylococcus aureus ON89", "experiment": "MIC, micro broth dilution", "format": "cell-based", "conditions": "alone", "experimental": "as §1"}, "[7]": {"test_system": "Staphylococcus epidermidis ON170", "experiment": "MIC, micro broth dilution", "format": "cell-based", "conditions": "alone", "experimental": "as §1"}, "[8]": {"test_system": "Stenotrophomonas maltophilia ON17", "experiment": "MIC, micro broth dilution", "format": "cell-based", "conditions": "alone", "experimental": "as §1"}, "[9]": {"test_system": "E. coli SK2", "experiment": "Checkerboard titration, FICI", "format": "cell-based, Escherichia coli", "conditions": "EDTA + ethanol", "experimental": "(§2) A fourth composition and solution included tetrasodium EDTA with ethanol or chlorhexidine HCl. This fourth composition and solution were created using checkerboard titration methods using micro broth dilution in 96-well microtiter plates. The concentrations of antimicrobials used were based on previously determined MIC values. Briefly, 200 μL, of two-fold dilutions of tetrasodium EDTA and ethanol or chlorhexidine HCl were prepared in MH or MH II broth with standardized cell suspension. […] Microtiter plates were incubated at 37° C. for 24 h, and the results were analyzed. Each test was performed in duplicate and included a growth control without adding any antimicrobials."}, "[10]": {"test_system": "C. albicans ON47", "experiment": "Checkerboard titration, FICI", "format": "cell-based, Candida albicans", "conditions": "EDTA + ethanol", "experimental": "as §2"}, "[11]": {"test_system": "S. epidermidis SK9", "experiment": "MBC/MFC determination", "format": "cell-based, Staphylococcus epidermidis", "conditions": "alone", "experimental": "as §1"}, "[12]": {"test_system": "C. albicans ON47", "experiment": "MBC/MFC determination", "format": "cell-based, Candida albicans", "conditions": "alone", "experimental": "as §1"}, "[13]": {"test_system": "MRSA ON184", "experiment": "Checkerboard, FMCI", "format": "cell-based, S. aureus", "conditions": "EDTA + ethanol", "experimental": "as §1, §2"}, "[14]": {"test_system": "Candida albicans SK4b", "experiment": "Checkerboard, FMCI", "format": "cell-based", "conditions": "EDTA + ethanol", "experimental": "as §1, §2"}, "[15]": {"test_system": "Escherichia coli ON29", "experiment": "Checkerboard, FMCI", "format": "cell-based", "conditions": "EDTA + ethanol", "experimental": "as §1, §2"}, "[16]": {"test_system": "Proteus mirabilis ON153", "experiment": "Checkerboard, FMCI", "format": "cell-based", "conditions": "EDTA + ethanol", "experimental": "as §1, §2"}, "[17]": {"test_system": "Pseudomonas aeruginosa SK1", "experiment": "Checkerboard, FMCI", "format": "cell-based", "conditions": "EDTA + ethanol", "experimental": "as §1, §2"}, "[18]": {"test_system": "Serratia marcescens SK2", "experiment": "Checkerboard, FMCI", "format": "cell-based", "conditions": "EDTA + ethanol", "experimental": "as §1, §2"}, "[19]": {"test_system": "Staphylococcus aureus ON89", "experiment": "Checkerboard, FMCI", "format": "cell-based", "conditions": "EDTA + ethanol", "experimental": "as §1, §2"}, "[20]": {"test_system": "Staphylococcus epidermidis ON170", "experiment": "Checkerboard, FMCI", "format": "cell-based", "conditions": "EDTA + ethanol", "experimental": "as §1, §2"}, "[21]": {"test_system": "Stenotrophomonas maltophilia ON17", "experiment": "Checkerboard, FMCI", "format": "cell-based", "conditions": "EDTA + ethanol", "experimental": "as §1, §2"}, "[22]": {"test_system": "Staphylococcus aureus ON89", "experiment": "FBEC index, checkerboard on biofilms", "format": "cell-based", "conditions": "EDTA + ethanol", "method": "(§3) In step (4), microtiter plates are incubated at 37° C. for 24 h. then (6), after incubation, the bacterial and fungal cells were dislodged from the pegs into the recovery medium described above.\n(§4) Three 10-μL aliquots, for a total of 30 μL from each well of recovery medium, were spotted on MH agar plates and incubated for 24 h at 37° C. […] The FBEC determination is a modification of the FICI."}, "[23]": {"test_system": "Pseudomonas aeruginosa SK1", "experiment": "FBEC index, checkerboard on biofilms", "format": "cell-based", "conditions": "EDTA + ethanol", "method": "as §3, §4"}, "[24]": {"test_system": "Candida albicans SK4b", "experiment": "FBEC index, checkerboard on biofilms", "format": "cell-based", "conditions": "EDTA + ethanol", "method": "as §3, §4"}, "[25]": {"test_system": "C. albicans ON47", "experiment": "FBEC index, checkerboard on biofilms", "format": "cell-based, Candida albicans", "conditions": "EDTA + ethanol", "method": "as §3, §4"}}}
{"smiles": "CCO", "note": "[Ethanol, ethanol]", "values": [{"measurement": "MIC", "setting": "[1]", "value": 6.25, "unit": "% w/v"}, {"measurement": "MIC", "setting": "[2]", "value": 12.5, "unit": "% w/v"}, {"measurement": "MIC", "setting": "[3]", "value": 6.25, "unit": "% w/v"}, {"measurement": "MIC", "setting": "[4]", "value": 3.125, "unit": "% w/v"}, {"measurement": "MIC", "setting": "[5]", "value": 6.25, "unit": "% w/v"}, {"measurement": "MIC", "setting": "[6]", "value": 6.25, "unit": "% w/v"}, {"measurement": "MIC", "setting": "[7]", "value": 3.125, "unit": "% w/v"}, {"measurement": "MIC", "setting": "[8]", "value": 6.25, "unit": "% w/v"}, {"measurement": "concentration in combination", "setting": "[9]", "value": 6.25, "unit": "% w/v"}, {"measurement": "concentration in combination", "setting": "[10]", "value": 0.4, "unit": "% w/v"}, {"measurement": "MBC/MFC", "setting": "[11]", "value": 12.5, "unit": "% w/v"}, {"measurement": "MBC/MFC", "setting": "[12]", "value": 6.25, "unit": "% w/v"}, {"measurement": "microbicidal concentration in combination", "setting": "[13]", "value": 3.125, "unit": "% w/v"}, {"measurement": "microbicidal concentration in combination", "setting": "[14]", "value": 3.125, "unit": "% w/v"}, {"measurement": "microbicidal concentration in combination", "setting": "[15]", "value": 6.25, "unit": "% w/v"}, {"measurement": "microbicidal concentration in combination", "setting": "[16]", "value": 6.25, "unit": "% w/v"}, {"measurement": "microbicidal concentration in combination", "setting": "[17]", "value": 6.25, "unit": "% w/v"}, {"measurement": "microbicidal concentration in combination", "setting": "[18]", "value": 6.25, "unit": "% w/v"}, {"measurement": "microbicidal concentration in combination", "setting": "[19]", "value": 3.125, "unit": "% w/v"}, {"measurement": "microbicidal concentration in combination", "setting": "[20]", "value": 1.6, "unit": "% w/v"}, {"measurement": "microbicidal concentration in combination", "setting": "[21]", "value": 1.6, "unit": "% w/v"}, {"measurement": "biofilm eradication concentration in combination (FBEC)", "setting": "[22]", "value": 0.8, "unit": "% w/v"}, {"measurement": "biofilm eradication concentration in combination (FBEC)", "setting": "[23]", "value": 3.125, "unit": "% w/v"}, {"measurement": "biofilm eradication concentration in combination (FBEC)", "setting": "[24]", "value": 1.6, "unit": "% w/v"}, {"measurement": "biofilm eradication concentration in combination (FBEC)", "setting": "[25]", "value": 1.6, "unit": "% w/v"}]}
